Measurements as given in patent US20260374792A1, “PHENYL-FREE BISCATIONIC QUATERNARY PHOSPHONIUM COMPOUNDS AS ANTIMICROBIAL AGENTS” (priority 2022, published 2026).

How the values were obtained:
[1] = test system: panel of bacteria; conditions: Gram-positive and Gram-negative pathogens; earlier generation compound; cited from earlier work
[2] = test system: P. aeruginosa (PAO1); assay: MIC against P. aeruginosa; assay type: cell-based; conditions: Pseudomonas aeruginosa; P. aeruginosa (PAO1); 72 hours, 37 °C; read-out: MIC
Procedure: (§1) The term “minimum inhibitory concentration (MIC)” means the lowest concentration of an antimicrobial agent that will inhibit the visible growth of a microorganism after overnight incubation. MIC values against bacteria, for example, the Gram-positive Staphylococcus aureus and Enterococcus faecalis and the Gram-negative Escherichia coli and Pseudomonas aeruginosa were determined by standard methods. See also P. A. Wayne, Methods for Dilution Antimicrobial Tests for Bacteria that Grow Aerobically; Approved Standard, Ninth Edition, 2012, CLSI Document M07-A9, Vol. 32 No. 2.
(§2) Biological testing procedures were adapted from prior work by Melander and coworkers. For all biological assays, laboratory strains of methicillin-susceptible Staphylococcus aureus MSSA (SH1000), Staphylococcus aureus CA-MRSA (USA300-0114), Staphylococcus aureus HA-MRSA (ATCC 33591), Escherichia coli (MC4100), Enterococcus faecalis (OG1RF), Acinetobacter baumannii (ATCC 17978), were grown with shaking at 37 °C overnight from freezer stocks in 5 mL of the indicated media: SH1000, OG1RF, MC4100, USA300-0114, and ATCC 17978 were grown in BDTM Mueller-Hinton broth (MHB), whereas ATCC 33591 was grown in BDTM tryptic soy broth (TSB). The inoculum were then streaked onto Mueller-Hinton agar (MHA) plates and grown overnight at 37 °C. From the plates, single colonies were selected, diluted into 50 mL of fresh media and grown overnight at 37 °C with shaking for use in the MIC assays. Optical density (OD) measurements were obtained using a SpectraMax iD3 plate reader (Molecular Devices, United States).
(§3) Compounds were serially diluted two-fold from stock solutions (1.0 mM) to yield twelve 100 μL test concentrations, wherein the starting concentration of dimethyl sulfoxide (DMSO) was 2.5%. Overnight S. aureus, E. faecalis, E. coli, A. baumannii, USA300-0114 (CA-MRSA), and ATCC 33591 (HA-MRSA) cultures were diluted to ca. 10^6 CFU/mL in MHB or TSB and regrown to mid-exponential phase, as determined by optical density recorded at 600 nm (OD600). All cultures were then diluted again to ca. 10^6 CFU/mL and 100 μL were inoculated into each well of a U-bottom 96-well plate (Corning, 351177) containing 100 μL of compound solution. Plates were incubated statically at 37 °C for 72 hours upon which wells were evaluated visually for bacterial growth. The MIC was determined as the lowest concentration of compound resulting in no bacterial growth visible to the naked eye, based on the highest value in three independent experiments. Aqueous DMSO controls were conducted as appropriate for each compound.
(§4) The prepared library of biscationic amphiphilic compounds was assessed for performance as antibacterial disinfectants by determining the minimum inhibitory concentration (MIC) for each against a panel of bacteria. The bacteria selected for the study were chosen to evaluate the broad spectrum antimicrobial performance of the QPCs, and therefore, included both Gram-positive and Gram-negative bacterial strains, including those with known antimicrobial resistance mechanisms. These bacteria include the Gram-positive strains of methicillin-susceptible Staphylococcus aureus [MSSA; SH1000], community-acquired methicillin-resistant Staphylococcus aureus [CA-MRSA; USA 300-0114], hospital-acquired methicillin-resistant Staphylococcus aureus [HA-MRSA; ATCC 33591] and the […], Escherichia coli [MC4100], Acinetobacter baumannii [ATCC 17498] and Pseudomonas aeruginosa [PAO1].

[3] = test system: E. faecalis (OG1RF); assay: MIC against E. faecalis; assay type: cell-based; conditions: Enterococcus faecalis, 72 h
Procedure: as §1, §2, §3, §4

[4] = test system: HA-MRSA (ATCC 33591); assay: MIC against hospital-acquired methicillin-resistant S. aureus (HA-MRSA); assay type: cell-based; conditions: Staphylococcus aureus, 72 h
Procedure: as §1, §2, §3, §4

[5] = test system: red blood cells; assay: Red Blood Cell (RBC) Lysis Assay (lysis20); assay type: cell-based, sheep; conditions: for Lysis20: concentration inducing 20% RBC lysis, sheep blood, 1 hour, 37 °C
Procedure: RBC lysis assays were performed on mechanically defibrinated sheep blood (Hemostat Labs: DSB030). An aliquot of 1.5 mL blood was placed into a microcentrifuge tube and centrifuged at 3,800 rpm for ten minutes. The supernatant was removed, and the cells were resuspended with 1 mL of phosphate-buffered saline (PBS). The suspension was centrifuged as described above, the supernatant was removed, and cells were resuspended 4 additional times in 1 mL PBS. The final cell suspension was diluted twentyfold with PBS. Compounds were serially diluted with PBS two-fold from stock solutions (1.0 mM) to yield 100 μL of twelve test concentrations on a flat-bottom 96-well plate (Corning, 351172), wherein the starting concentration of DMSO was 2.5%. To each of the wells, 100 μL of the twentyfold suspension dilution was then inoculated. TritonX (1% by volume) served as a positive control (100% lysis marker) and sterile PBS served as a negative control (0% lysis marker). Samples were then placed in an incubator at 37 °C and shaken at 200 rpm. After 1 hour, the samples were centrifuged at 3,800 rpm for ten minutes. The absorbance of the supernatant was measured with a UV spectrometer at a 540 nm wavelength. The concentration inducing 20% RBC lysis was then calculated for each compound based upon the absorbances of the TritonX and PBS controls. Aqueous DMSO controls were conducted as appropriate for each compound.
The potential cytotoxicity of the compounds was also considered with the evaluation of hemolysis (lysis20) assays with 20% lysis of red blood cells serving as an indicator of potentially toxic compounds. Finally, the bioactivity of these compounds were benchmarked against a commercial benzalkonium chloride source (BAC; 70% benzyldimethyldodecylammonium chloride, and 30% benzyldimethyltetradecylammonium chloride) as well as some previously reported disinfectant compounds from the inventors' groups; included were bisQPC ^PhP6P-10,10 as well as ^PhP2P-10,10 and 12(2)12. A detailed description of the experimental procedures used to evaluate bioactivity and hemolysis assays are described above.

[6] = test system: MSSA (SH1000); assay: MIC against methicillin-susceptible S. aureus (MSSA); assay type: cell-based; conditions: Staphylococcus aureus; MSSA (SH1000); 72 hours, 37 °C; read-out: MIC
Procedure: as §1, §2, §3, §4

[7] = test system: A. baumannii; assay: MIC against A. baumannii; assay type: cell-based; conditions: Acinetobacter baumannii, 72 h
Procedure: as §1, §2, §3, §4

[8] = test system: E. coli (MC4100); assay: MIC against E. coli; assay type: cell-based; conditions: Escherichia coli, 72 hours, 37 °C
Procedure: as §1, §2, §3, §4

[9] = test system: panel of bacteria; assay: MIC across the panel of bacteria (Gram-positive and Gram-negative); assay type: cell-based; conditions: for MIC: read-out: MIC values; for antimicrobial activity / bioactivity (in words): over the bacterial panel
Procedure: as §1, §2, §3, §4

[10] = test system: CA-MRSA (USA300-0114); assay: MIC against community-acquired methicillin-resistant S. aureus (CA-MRSA); assay type: cell-based; conditions: Staphylococcus aureus, 72 h
Procedure: as §1, §2, §3, §4

[11] = test system: A. baumannii; assay: MBEC, biofilm eradication, A. baumannii; assay type: cell-based, Acinetobacter baumannii; conditions: 24 hours, 37 °C, TSB
Procedure: (§5) A regrowth assay was used to establish the MBEC of a compound to evaluate the antibiofilm activity.
(§6) Biofilm eradication experiments were performed using a pegged-lid microtiter plate assay to determine the MBEC values for compounds of interest, as previously described. […] Sci. Rep. 2017, 7, 2003; and Raval, Y. S., Flurin, L., Mohamed, A., Greenwood-Quaintance, K. E., Beyenal, H., & Patel, R. In Vitro Activity of Hydrogen Peroxide and Hypochlorous Acid Generated by Electrochemical Scaffolds Against Planktonic and Biofilm Bacteria. Antimicrob Agents Chemother. 2021, 65, e01966-20. Briefly, […] of mid-log phase culture diluted to ca. 10^6 CFU/mL in tryptic soy broth (TSB) was added to wells of plat-bottom 96-well plates (Thermo Scientific, 266120) and covered with 96-pegged lid (Thermo Scientific, 445497). Plates were incubated to establish bacterial biofilms after incubation at 37 °C for 24 hours. The pegged lid was then removed, washed with PBS, and transferred to another 96-well plate containing 2-fold serial dilutions of the test compounds (the “challenge plate”). The total volume in each well was […], comprising of […] of compound diluted in water/DMSO, with a starting DMSO concentration of 2.5%, and […] of TSB. Plates were incubated statically at 37 °C for 24 hours. Next, the pegged lids were transferred to a fresh 96-well plate containing […] of TSB and incubated overnight at 37 °C. MBEC values were determined as the lowest test concentration that resulted eradicated biofilm (i.e., wells displaying no turbidity in the final plate).

[12] = test system: E. faecalis; assay: MBEC, biofilm eradication, E. faecalis; assay type: cell-based, Enterococcus faecalis; conditions: 24 hours, 37 °C, TSB
Procedure: as §5, §6

[13] = test system: P. aeruginosa; assay: MBEC, biofilm eradication, P. aeruginosa; assay type: cell-based, Pseudomonas aeruginosa; conditions: 24 hours, 37 °C, TSB
Procedure: as §5, §6

[14] = test system: HA-MRSA; assay: MBEC, biofilm eradication, HA-MRSA; assay type: cell-based, Staphylococcus aureus; conditions: 24 hours, 37 °C, TSB
Procedure: as §5, §6

Compound	antimicrobial efficacy (in words, earlier work) [1]	MIC [2] [µM]	MIC [3] [µM]	MIC [4] [µM]	Lysis20 [5] [µM]	MIC [6] [µM]	MIC [7] [µM]	MIC [8] [µM]	MIC [9] [µM]	MIC [10] [µM]	antimicrobial activity / bioactivity (in words) [9]	MBEC [11] [µM]	MBEC [12] [µM]	MBEC [13] [µM]	MBEC [14] [µM]	hemolysis (lysis20) (in words) [5]
CCCCCCCCCC[P+](CCCCCC[P+](CCCCCCCCCC)(c1ccccc1)c1ccccc1)(c1ccccc1)c1ccccc1 [^PhP6P-10,10, reference compound]	high degree of antimicrobial efficacy	2	2	1	8	1	4	2	1 to 4	1						
CCCCCCCCCCCC[P+](CC)(CC)CC[P+](CC)(CC)CCCCCCCCCCCC [^EtP2P-12,12]		8	16	1	8	1	2	2		1	single-digit micromolar activity with just one exception					
CCCCCCCCCCC[P+](CC[P+](CCCCCCCCCCC)(C1CCCCC1)C1CCCCC1)(C1CCCCC1)C1CCCCC1 [^CyP2P-11,11]		8	8	1	8	1	4	4	1 to 8	1	single-digit micromolar activity					
CCCCCCCCCCCCCCCC[P+](C)(C)CC[P+](C)(C)CCCCCCCCCCC [^MeP2P-16,16]		> 250	250	63	125	32	> 250	250		32						
CCCCCCCCCCCCCC[P+](CC)(CC)CC[P+](CC)(CC)CCCCCCCCCCCCCC [^EtP2P-14,14]		63	63	4	8	8	32	8		4						
CCCCCCCCCC[N+](C)(C)CCCCCCCCCC.[Cl-] [DDAC, didecyldimethylammonium chloride]												8	16	>250	16	
CCCCCCCCCCCCCC[P+](CC[P+](CCCCCCCCCCCCCC)(C1CCCCC1)C1CCCCC1)(C1CCCCC1)C1CCCCC1 [^CyP2P-14,14]		63	32	2	8	4	63	63		4						
CCCCCCCCCCC[P+](C)(C)CC[P+](C)(C)CCCCCCCCCCC [^MeP2P-11,11]		8	2	1	16	2	16	4		1						
CCCCCCCCC[P+](CC[P+](CCCCCCCCC)(C1CCCCC1)C1CCCCC1)(C1CCCCC1)C1CCCCC1 [^CyP2P-9,9]		32	16	2	125	1	16	16	16	1						diminished hemolysis over the commercial BAC control
